Assay results from US4376771A, “6-(p-Acylaminophenyl)-4,5-dihydropyridaz-3-ones and therapeutic agents containing said compounds” (BASF Aktiengesellschaft, priority 1977, dated 1983).
Values after ≈ are worked out from the molar mass of the structure shown. Read-outs that look alike come from different tables or passages of the source.

How the values were obtained:
[1] = system: human thrombocytes; experiment: Inhibition of the collagen-induced aggregation of human thrombocytes in vitro; type: cell-based; settings: for EC50: 10 min, read-out: Inhibition of thrombocyte aggregation EC 50%; for Inhibition of thrombocyte aggregation R.E. (relative effectiveness): acetylsalicylic acid = 1.00
Procedure: 1. Inhibition of the collagen-induced aggregation of human thrombocytes in vitro.
Thrombocyte-rich plasma is obtained by centrifuging venous citrate blood (300 g, 10 minutes duration at 4° C.). The photometric measurement of the thrombocyte aggregation is carried out with addition of MgCl2 (final concentration 10 millimoles/l) and of collagen Stago (final concentration 0.02 mg/ml) in a Born Mk 3 aggregometer. The maximum extinction change/sec is used as a measure of the aggregation.
The aggregation-inhibiting activity of the substances is tested after an incubation time of 10 minutes.
(§1) The effective doses or effective concentrations were calculated from the linear relationships between the logarithm of the dose or concentration and the logarithm of the effect, by means of regression analysis.
(§2) Acetylsalicyclic acid was used as the reference substance for the inhibition of thrombocyte aggregation and dihydralazine was used as the reference substance for the anti-hypertensive effect.

[2] = system: narcotized rats; experiment: Anti-hypertensive effect on narcotized rats; type: in vivo, male Sprague-Dawley rats; settings: for ED20: Rattus norvegicus, ip, dose at which the blood pressure falls by 20%, read-out: Lowering of blood pressure ED 20%; for ED20 / Lowering of blood pressure R.E. (relative effectiveness): rats, urethane narcosis, intraperitoneal; for anti-hypertensive effect (in words): Table 1; for Lowering of blood pressure R.E. (relative effectiveness): dihydralazine = 1.00; for anti-hypertensive power relative to dihydralazine: times more powerful than dihydralazine
Procedure: 3. Anti-hypertensive effect on narcotized rats.
To test the anti-hypertensive effect, the substances are administered intraperitoneally to groups of 3-5 male Sprague-Dawley rats weighing 240-280 g, under urethane narcosis ([…] given intraperitoneally). The measurement of the blood pressure in the carotid artery is carried out by means of Statham transducers. The ED 20% is determined as the dose which lowers the mean carotid blood pressure by 20%.
as §1, §2

[3] = system: rat thrombocytes; experiment: Inhibition of the collagen-induced aggregation of rat thrombocytes ex vivo; type: in vivo, male Sprague-Dawley rats; settings: for ED33: Rattus norvegicus, read-out: Inhibition of thrombocyte aggregation ED 33%; for Inhibition of thrombocyte aggregation R.E. (relative effectiveness): acetylsalicylic acid 1.0
Procedure: 2. Inhibition of the collagen-induced aggregation of rat thrombocytes ex vivo.
The substances are administered orally to groups of 10-15 male Sprague-Dawley rats weighing 200-250 g. 2-4 hours after administration, blood is taken under ether narcosis and thrombocyte-rich plasma is obtained by centrifuging. The aggregation after addition of collagen is measured as indicated above.
as §1, §2

[4] = Toxicity (LD 50), mice, intraperitoneal administration; type: in vivo; settings: mouse, in vivo, ip; mice, intraperitoneal administration
Source text: (§3) ^(3) Mice. Intraperitoneal administration.

[5] = system: Mice; experiment: as above; type: in vivo; settings: compared with acetylsalicylic acid and dihydralazine; Table 2
Source text: as §3

[6] = system: spontaneously hypertonic rats; experiment: Anti-hypertensive effect on spontaneously hypertonic rats; type: in vivo, male spontaneously hypertonic Okamoto rats; settings: for ED20: Rattus norvegicus, 2 hours, dose which lowers the blood pressure by 20% compared to the control group, read-out: Anti-hypertensive effect ED 20%; for ED20 / Anti-hypertensive effect R.E. (relative effectiveness): spontaneously hypertonic rats, oral; for Anti-hypertensive effect R.E. (relative effectiveness): dihydralazine 1.0
Procedure: 4. Anti-hypertensive effect on spontaneously hypertonic rats.
The substances are administered orally to groups of 4-8 male spontaneously hypertonic Okamoto rats weighing 270-340 g.
Before, and 2 hours after, the administration, the systolic blood pressure is measured non-surgically by means of piezo-electric crystal sensors.
The ED 20% is determined as the dose which lowers the systolic pressure by 20%, taking into account the values found with untreated control animals.
as §1, §2

[7] = human thrombocytes, in vitro, collagen 0.02 mg/ml, 10 minutes incubation, concentration which inhibits collagen-induced aggregation by 50%

SMILES	EC50 [1, 7] [µg/mL]	Inhibition of thrombocyte aggregation R.E. (relative effectiveness) ([1]; human thrombocytes, in vitro)	ED20 [2] [mg/kg]	anti-hypertensive effect (in words) [2]	Lowering of blood pressure R.E. (relative effectiveness) [2]	further results
O=C1CCC(c2ccc(NC(=O)CCl)cc2)=NN1 [Example 1, 6-(p-chloroacetylaminophenyl)-4,5-dihydropyridaz-3-one]	0.25 (≈ 0.941 µM)	1,980	0.37	about as active as dihydralazine	0.92	
CC(=O)Oc1ccccc1C(=O)O [Acetylsalicylic acid, acetylsalicylic acid, reference compound]						EC50 ([1]; Homo sapiens): 494 µg/mL (≈ 2740 µM); ED33 ([3]; po): 134 mg/kg; Inhibition of thrombocyte aggregation R.E. (relative effectiveness) ([3]; rats, oral, ex vivo): 1.0; LD50 [4]: 167 mg/kg
CC(Cl)C(=O)Nc1ccc(C2=NNC(=O)CC2C)cc1 (stereo not shown) [Example 5, 6-[p-(2-chloropropionylamino)-phenyl]-5-methyl-4,5-dihydropyridaz-3-one]	0.031 (≈ 0.106 µM)	15,900	0.0079		43.04	ED33 ([3]; rats, oral, ex vivo, Example 5 given 2 hours, acetylsalicylic acid 4 hours before measuring, dose which inhibits collagen-induced aggregation by 33%): 0.82 mg/kg; inhibition of thrombocyte aggregation after oral administration (in words) ([3]; oral, Table 2): very strong inhibition of thrombocyte aggregation; Inhibition of thrombocyte aggregation R.E. (relative effectiveness) ([3]; rats, oral, ex vivo): 163; LD50 [4]: 231 mg/kg; acute toxicity (in words) [5]: somewhat less than that of acetylsalicyclic acid and dihydralazine; ED20 [6]: 1.16 mg/kg; lowering of blood pressure ([6]; spontaneously hypertensive rats, oral dose of 1.2 mg/kg): about 20%; Anti-hypertensive effect R.E. (relative effectiveness) [6]: 5.9; anti-hypertensive power relative to dihydralazine [2]: 43 times
CC(Cl)C(=O)Nc1ccc(C2=NNC(=O)CC2)cc1 (stereo not shown) [Example 4, 6-[p-(2-chloropropionylamino)-phenyl]-4,5-dihydropyridaz-3-one]	0.27 (≈ 0.965 µM)	1,830	0.53	about as active as dihydralazine	0.64	
NNc1nnc(NN)c2ccccc12 [Dihydralazine, dihydralazine, reference compound]	149 (≈ 783 µM)	3.32	0.34		1.00	LD50 [4]: 106 mg/kg; ED20 [6]: 6.85 mg/kg; Anti-hypertensive effect R.E. (relative effectiveness) [6]: 1.0
CC1CC(=O)NN=C1c1ccc(NC(=O)CCl)cc1 (stereo not shown) [Example 3, 6-(p-chloroacetylaminophenyl)-5-methyl-4,-dihydropyridaz-3-one]	0.11 (≈ 0.393 µM)	4,490	0.15	about as active as dihydralazine	2.27	
CC1CC(=O)NN=C1c1ccc(NC(=O)CCCCl)cc1 (stereo not shown) [Example 8, 6-[p-(4-chlorobutyrylamino)-phenyl]-5-methyl-4,5-dihydropyridaz-3-one]	1.7 (≈ 5.52 µM)	291	0.32	about as active as dihydralazine	1.06	
O=C1CCC(c2ccc(NC(=O)CCCl)cc2)=NN1 [Example 6, 6-[p-(3-chloropropionylamino)-phenyl]-4,5-dihydropyridaz-3-one]	0.35 (≈ 1.25 µM)	1,410	10	slight	0.03	inhibition of thrombocyte aggregation (in words) ([1]; human thrombocytes, collagen-induced, Table 1): highly specific thrombocyte aggregation-inhibiting effect
CC1CC(=O)NN=C1c1ccc(NC(=O)CCCl)cc1 (stereo not shown) [Example 7, 6-[p-(3-chloropropionylamino)-phenyl]-5-methyl-4,5-dihydropyridaz-3-one]	0.3 (≈ 1.02 µM)	1,650	0.045		7.56	anti-hypertensive power relative to dihydralazine [2]: 7.6 times

Second part, led by results:

EC50 [1, 7] [µg/mL]	SMILES	Inhibition of thrombocyte aggregation R.E. (relative effectiveness) ([1]; human thrombocytes, in vitro)	ED20 [2] [mg/kg]	anti-hypertensive effect (in words) [2]	Lowering of blood pressure R.E. (relative effectiveness) [2]	further results
0.47 (≈ 1.46 µM)	CC1CC(=O)NN=C1c1ccc(NC(=O)C(C)(C)CCl)cc1 (stereo not shown) [Example 11]	1,050	0.61		0.56	
0.58 (≈ 1.71 µM)	CC(Br)C(=O)Nc1ccc(C2=NNC(=O)CC2C)cc1 (stereo not shown) [Example 16]	852	0.4	about as active as dihydralazine	0.85	
0.44 (≈ 1.2 µM)	CC1CC(=O)NN=C1c1ccc(NC(=O)C(C)(C)CBr)cc1 (stereo not shown) [Example 12]	1,120	0.34	about as active as dihydralazine	1.00	
0.27 (≈ 0.767 µM)	CCC(Br)C(=O)Nc1ccc(C2=NNC(=O)CC2C)cc1 (stereo not shown) [Example 9]	1,830	1.49	slight	0.23	
0.89 (≈ 2.53 µM)	CC1CC(=O)NN=C1c1ccc(NC(=O)C(C)(C)Br)cc1 (stereo not shown) [Example 17]	555	2.93	slight	0.12	
